From the supplement of paper PMC10307832

What was measured:
Assay in all cases: relative viability (nuclei count vs DMSO), 5 days (fraction); higher = more cells survive
RU-SKI 43 = compound: CC[C@@H](C)CNCC(=O)N1CCC2=C([C@@H]1COC3=CC=CC(=C3)C)C=CS2 [RU-SKI 43]
Outline: (§1)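 Nuclei counted with MetaXpress define viability as the ratio of treated to vehicle wells, given as a median across plates. The lung cancer cell lines were in 1536-well plates, pinned with five √10-spaced library-drug doses and imaged at 4× after 5 days and Hoechst staining. Plates passed with control CV below 25% and at least one doubling.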

Irinotecan = compound: CCc1c2c(nc3ccc(OC(=O)N4CCC(N5CCCCC5)CC4)cc13)-c1cc3c(c(=O)n1C2)COC(=O)[C@]3(O)CC [Irinotecan]
Outline: as §1

MK-8033 = compound: Cn1cc(-c2cnc3ccc4ccc(CS(=O)(=O)NCc5ccccn5)cc4c(=O)c3c2)cn1 [MK-8033]
Outline: as §1

**Q.** Which relative viability (RU-SKI 43; 0.1 µM) does the source give for LOU-NH91 here?
**A.** Its relative viability is 0.971.

**Q.** And the relative viability (RU-SKI 43; 0.3162 µM)?
**A.** The relative viability was 0.918.

**Q.** And the relative viability (RU-SKI 43; 1 µM)?
**A.** Its relative viability is 1.03.

**Q.** And the relative viability (RU-SKI 43; 3.162 µM)?
**A.** The relative viability was 0.939.

**Q.** What about the relative viability (RU-SKI 43; 10 µM) of the same cell line?
**A.** Its relative viability is 0.932.

**Q.** And the relative viability (Irinotecan; 0.6325 µM)?
**A.** Its relative viability is 0.898.

**Q.** What about the relative viability (Irinotecan; 2 µM) of the same cell line?
**A.** The relative viability was 0.971.

**Q.** And the relative viability (Irinotecan; 6.325 µM)?
**A.** Its relative viability is 0.456.

**Q.** And the relative viability (Irinotecan; 20 µM)?
**A.** Its relative viability is 0.385.

**Q.** What about the relative viability (MK-8033; 0.02 µM) of the same cell line?
**A.** Its relative viability is 0.979.

**Q.** What about the relative viability (MK-8033; 0.06325 µM) of the same cell line?
**A.** The relative viability was 0.712.

**Q.** What about the relative viability (MK-8033; 0.2 µM) of the same cell line?
**A.** The relative viability was 0.941.

**Q.** And the relative viability (MK-8033; 0.6325 µM)?
**A.** The relative viability was 0.937.

**Q.** And the relative viability (MK-8033; 2 µM)?
**A.** Its relative viability is 0.975.

**Q.** Which results are given for NCI-H1975?
**A.** relative viability (RU-SKI 43; 0.1 µM): 1.07; relative viability (RU-SKI 43; 0.3162 µM): 1.25; relative viability (RU-SKI 43; 1 µM): 1.05; relative viability (RU-SKI 43; 3.162 µM): 1.01; relative viability (RU-SKI 43; 10 µM): 0.922; relative viability (Irinotecan; 0.6325 µM): 0.894; relative viability (Irinotecan; 2 µM): 1.04; relative viability (Irinotecan; 6.325 µM): 0.622; relative viability (Irinotecan; 20 µM): 0.196; relative viability (MK-8033; 0.02 µM): 0.892; relative viability (MK-8033; 0.06325 µM): 0.905; relative viability (MK-8033; 0.2 µM): 0.862; relative viability (MK-8033; 0.6325 µM): 0.854; relative viability (MK-8033; 2 µM): 0.931

**Q.** Which relative viability (RU-SKI 43; 0.1 µM) does the source give for NCI-H650 here?
**A.** The relative viability was 0.968.

**Q.** What about the relative viability (RU-SKI 43; 0.3162 µM) of the same cell line?
**A.** The relative viability was 0.9.

**Q.** What about the relative viability (RU-SKI 43; 1 µM) of the same cell line?
**A.** The relative viability was 1.13.

**Q.** And the relative viability (RU-SKI 43; 3.162 µM)?
**A.** The relative viability was 0.758.

**Q.** And the relative viability (RU-SKI 43; 10 µM)?
**A.** Its relative viability is 1.05.

**Q.** What about the relative viability (Irinotecan; 0.6325 µM) of the same cell line?
**A.** Its relative viability is 0.648.

**Q.** What about the relative viability (Irinotecan; 2 µM) of the same cell line?
**A.** Its relative viability is 0.794.

**Q.** What about the relative viability (Irinotecan; 6.325 µM) of the same cell line?
**A.** Its relative viability is 0.259.

**Q.** What about the relative viability (Irinotecan; 20 µM) of the same cell line?
**A.** The relative viability was 0.241.

**Q.** And the relative viability (MK-8033; 0.02 µM)?
**A.** The relative viability was 0.985.

**Q.** And the relative viability (MK-8033; 0.06325 µM)?
**A.** Its relative viability is 0.977.

**Q.** What about the relative viability (MK-8033; 0.2 µM) of the same cell line?
**A.** The relative viability was 1.06.

**Q.** What about the relative viability (MK-8033; 0.6325 µM) of the same cell line?
**A.** Its relative viability is 0.954.

**Q.** What about the relative viability (MK-8033; 2 µM) of the same cell line?
**A.** Its relative viability is 0.906.

**Q.** With SW 1573 as the cell line, how does the relative viability (RU-SKI 43; 0.1 µM) read?
**A.** Its relative viability is 1.01.

**Q.** And the relative viability (RU-SKI 43; 0.3162 µM)?
**A.** The relative viability was 1.16.

**Q.** What about the relative viability (RU-SKI 43; 1 µM) of the same cell line?
**A.** The relative viability was 0.954.

**Q.** And the relative viability (RU-SKI 43; 3.162 µM)?
**A.** The relative viability was 1.07.

**Q.** And the relative viability (RU-SKI 43; 10 µM)?
**A.** The relative viability was 0.802.

**Q.** What about the relative viability (Irinotecan; 0.6325 µM) of the same cell line?
**A.** The relative viability was 0.571.

**Q.** What about the relative viability (Irinotecan; 2 µM) of the same cell line?
**A.** The relative viability was 0.709.

**Q.** What about the relative viability (Irinotecan; 6.325 µM) of the same cell line?
**A.** Its relative viability is 0.271.

**Q.** And the relative viability (Irinotecan; 20 µM)?
**A.** The relative viability was 0.142.

**Q.** What about the relative viability (MK-8033; 0.02 µM) of the same cell line?
**A.** Its relative viability is 1.05.

**Q.** And the relative viability (MK-8033; 0.06325 µM)?
**A.** The relative viability was 0.84.

**Q.** What about the relative viability (MK-8033; 0.2 µM) of the same cell line?
**A.** Its relative viability is 0.917.

**Q.** And the relative viability (MK-8033; 0.6325 µM)?
**A.** The relative viability was 0.969.

**Q.** And the relative viability (MK-8033; 2 µM)?
**A.** The relative viability was 0.893.

**Q.** Which relative viability (RU-SKI 43; 0.1 µM) does the source give for NCI-H441 here?
**A.** Its relative viability is 1.12.

**Q.** And the relative viability (RU-SKI 43; 0.3162 µM)?
**A.** Its relative viability is 1.16.

**Q.** And the relative viability (RU-SKI 43; 1 µM)?
**A.** Its relative viability is 1.08.

**Q.** And the relative viability (RU-SKI 43; 3.162 µM)?
**A.** The relative viability was 1.14.

**Q.** And the relative viability (RU-SKI 43; 10 µM)?
**A.** The relative viability was 0.956.

**Q.** And the relative viability (Irinotecan; 0.6325 µM)?
**A.** The relative viability was 0.567.

**Q.** And the relative viability (Irinotecan; 2 µM)?
**A.** The relative viability was 0.614.

**Q.** And the relative viability (Irinotecan; 6.325 µM)?
**A.** Its relative viability is 0.303.

**Q.** And the relative viability (Irinotecan; 20 µM)?
**A.** Its relative viability is 0.266.

**Q.** What about the relative viability (MK-8033; 0.02 µM) of the same cell line?
**A.** The relative viability was 1.01.

**Q.** And the relative viability (MK-8033; 0.06325 µM)?
**A.** Its relative viability is 0.903.

**Q.** What about the relative viability (MK-8033; 0.2 µM) of the same cell line?
**A.** The relative viability was 1.04.

**Q.** And the relative viability (MK-8033; 0.6325 µM)?
**A.** Its relative viability is 1.02.

**Q.** What about the relative viability (MK-8033; 2 µM) of the same cell line?
**A.** Its relative viability is 1.08.

**Q.** How did the relative viability (RU-SKI 43; 0.1 µM) turn out when NCI-H1944 was run?
**A.** The relative viability was 1.01.

**Q.** And the relative viability (RU-SKI 43; 0.3162 µM)?
**A.** Its relative viability is 0.98.

**Q.** What about the relative viability (RU-SKI 43; 1 µM) of the same cell line?
**A.** The relative viability was 1.08.

**Q.** And the relative viability (RU-SKI 43; 3.162 µM)?
**A.** Its relative viability is 0.968.

**Q.** And the relative viability (RU-SKI 43; 10 µM)?
**A.** Its relative viability is 0.932.

**Q.** What about the relative viability (Irinotecan; 0.6325 µM) of the same cell line?
**A.** Its relative viability is 0.67.

**Q.** And the relative viability (Irinotecan; 2 µM)?
**A.** Its relative viability is 0.559.

**Q.** And the relative viability (Irinotecan; 6.325 µM)?
**A.** The relative viability was 0.244.

**Q.** And the relative viability (Irinotecan; 20 µM)?
**A.** The relative viability was 0.194.

**Q.** And the relative viability (MK-8033; 0.02 µM)?
**A.** Its relative viability is 0.927.

**Q.** What about the relative viability (MK-8033; 0.06325 µM) of the same cell line?
**A.** The relative viability was 0.768.

**Q.** What about the relative viability (MK-8033; 0.2 µM) of the same cell line?
**A.** The relative viability was 0.982.

**Q.** What about the relative viability (MK-8033; 0.6325 µM) of the same cell line?
**A.** Its relative viability is 0.968.

**Q.** What about the relative viability (MK-8033; 2 µM) of the same cell line?
**A.** The relative viability was 1.03.

**Q.** For NCI-H838, which relative viability (RU-SKI 43; 0.1 µM) is on record?
**A.** The relative viability was 0.97.

**Q.** And the relative viability (RU-SKI 43; 0.3162 µM)?
**A.** Its relative viability is 0.965.

**Q.** What about the relative viability (RU-SKI 43; 1 µM) of the same cell line?
**A.** Its relative viability is 1.05.

**Q.** What about the relative viability (RU-SKI 43; 3.162 µM) of the same cell line?
**A.** The relative viability was 1.

**Q.** What about the relative viability (RU-SKI 43; 10 µM) of the same cell line?
**A.** Its relative viability is 0.981.

**Q.** What about the relative viability (Irinotecan; 0.6325 µM) of the same cell line?
**A.** Its relative viability is 1.05.

**Q.** What about the relative viability (Irinotecan; 2 µM) of the same cell line?
**A.** The relative viability was 1.02.

**Q.** And the relative viability (Irinotecan; 6.325 µM)?
**A.** The relative viability was 0.526.

**Q.** And the relative viability (Irinotecan; 20 µM)?
**A.** Its relative viability is 0.316.

**Q.** And the relative viability (MK-8033; 0.02 µM)?
**A.** The relative viability was 0.954.

**Q.** What about the relative viability (MK-8033; 0.06325 µM) of the same cell line?
**A.** The relative viability was 0.923.

**Q.** And the relative viability (MK-8033; 0.2 µM)?
**A.** Its relative viability is 0.919.

**Q.** And the relative viability (MK-8033; 0.6325 µM)?
**A.** The relative viability was 0.952.

**Q.** What about the relative viability (MK-8033; 2 µM) of the same cell line?
**A.** The relative viability was 0.953.

**Q.** What does the source list for NCI-H661?
**A.** relative viability (RU-SKI 43; 0.1 µM): 0.92; relative viability (RU-SKI 43; 0.3162 µM): 1.05; relative viability (RU-SKI 43; 1 µM): 1.06; relative viability (RU-SKI 43; 3.162 µM): 0.99; relative viability (RU-SKI 43; 10 µM): 0.943; relative viability (Irinotecan; 0.6325 µM): 1.05; relative viability (Irinotecan; 2 µM): 0.838; relative viability (Irinotecan; 6.325 µM): 0.52; relative viability (Irinotecan; 20 µM): 0.454; relative viability (MK-8033; 0.02 µM): 0.994; relative viability (MK-8033; 0.06325 µM): 0.849; relative viability (MK-8033; 0.2 µM): 1.01; relative viability (MK-8033; 0.6325 µM): 1.01; relative viability (MK-8033; 2 µM): 0.993
